In patent US10343988B1, “Hydroxytyrosol thiodipropionic acid ester with antioxidant activity and a method of preparing the same” (SHAANXI UNIVERSITY OF SCIENCE AND TECHNOLOGY, priority 2019, dated 2019):
“Also recorded” adds a separate entry of the source.

Test: DPPH radical scavenging activity assay
Format: biochemical
Conditions: for Scavenging Activity (%) (n = 3): DPPH in methanol, 30 min, 517 nm
From the text: DPPH Radical Scavenging Activity Assay
2,2-Diphenyl-1-picryl hydrazyl (DPPH) is an organic compound composed of a stable organic radical. In the DPPH molecule, due to the presence of multiple electron-withdrawing —NO2 and large it bonds of the benzene ring, nitrogen free radical is stabilized. Its methanol solution is purple and has a maximum absorption peak at 517 nm. After the addition of an antioxidant, DPPH captures an electron to be paired with the free electron, and the purple fades and turns into a yellow substance. The absorption at 517 nm disappears, and the degree of fading is quantitatively related to the number of electrons it captures. Based on this principle, a spectrophotometer is used to detect the change of the absorbance of the DPPH radical and the sample solution, and the ability of the sample to provide hydrogen atoms and scavenge free radicals can be measured.
(a) Preparation of DPPH solution:measuring exact amount of 2,2-diphenyl-1-picryl hydrazyl (DPPH) and dissolving in methanol to prepare a 0.2×10^−4 mol/L DPPH solution, stored at 0° C. in dark.
(b) Preparation of sample solutions: Vc (vitamin C, positive control), hydroxytyrosol thiodipropionic acid ester, hydroxytyrosol (control), thiodipropionic acid (control), and a mixture of hydroxytyrosol and thiodipropionic acid (control) were dissolved in methanol and diluted in a concentration gradient.
Measuring the scavenging activity of the sample solutions: 2 mL of the sample solutions (table 1) at each concentration gradient was taken, 2 mL 0.2×10^−4 mol/L DPPH solution was added, the mixture was mixed and reacted at room temperature in dark for 30 minutes, and methanol was then added to adjust final volume. The absorbance Ai was measured at 517 nm. 2 mL control solution and 2 mL methanol were mixed, and the absorbance Aj was measured. 2 mL DPPH solution and 2 mL methanol were mixed, and the absorbance A0 was measured.
(d) The scavenging activity of the sample solution and control solutions is calculated according to the following calculation formula and shown in Table 3 and FIG. 3. Scavenging activity (%)=100×[1−(Ai−Aj)/A0]

[1] = sample concentration 1.648 μg/mL, room temperature, dark
[2] = sample concentration 8.242 μg/mL
[3] = sample concentration 16.484 μg/mL
[4] = sample concentration 37.969 μg/mL
[5] = sample concentration 65.938 μg/mL
[6] = sample concentration 131.875 μg/mL
[7] = sample concentration 263.750 μg/mL
[8] = sample concentration 527.500 μg/mL
[9] = sample concentration 1055.000 μg/mL

SMILES | Scavenging Activity (%) (n = 3) [1] | Scavenging Activity (%) (n = 3) [2] | Scavenging Activity (%) (n = 3) [3] | Scavenging Activity (%) (n = 3) [4] | Scavenging Activity (%) (n = 3) [5] | Scavenging Activity (%) (n = 3) [6] | Scavenging Activity (%) (n = 3) [7] | Scavenging Activity (%) (n = 3) [8] | Scavenging Activity (%) (n = 3) [9] | DPPH radical scavenging activity (result in words, comparison with controls) (1.648 to 1055 μg/mL, compared at same concentration)
O=C(O)CCSCCC(=O)O [C, 3,3′-thiodipropionic acid] | 3.24 | 4.86 | 9.72 | 16.19 | 20.65 | 27.13 | 31.58 | 32.39 | 38.06 | 
O=C(CCSCCC(=O)OCCc1ccc(O)c(O)c1)OCCc1ccc(O)c(O)c1 [A, bis(3,4-dihydroxyphenethyl) 3,3′-thiodipropanoate] | 32.44 | 42.37 | 52.29 | 66.79 | 79.39 | 90.01 | 96.95 | 97.71 | 98.09 | obvious DPPH radical scavenging activity in a concentration dependent manner; also recorded: better DPPH radical scavenging activity than hydroxytyrosol (B), thiodipropionic acid (C), and a 2:1 physical mixture of hydroxytyrosol and thiodipropionic acid (D) at same concentration
O=C1O[C@H]([C@@H](O)CO)C(O)=C1O [Vc, Vitamin C] | 34.01 | 37.06 | 44.67 | 67.51 | 95.43 | 97.46 | 98.98 | 99.49 | 99.49 | 
OCCc1ccc(O)c(O)c1 [B, 4-(2-hydroxyethyl)-1,2-benzenediol] | 8.44 | 10.97 | 22.78 | 29.96 | 43.04 | 62.87 | 73.00 | 75.11 | 75.95 | 
